Test results reported in patent US7718801B2, “Substituted imidazole derivative” (Banyu Pharmaceutical Co., Ltd., priority 2004, dated 2010).

Legend:
full-length human PLK1 = molecular target: T1, full-length human PLK1 (Homo sapiens, UniProt P53350); experiment: Measurement of the inhibitory effect against PLK1 activity ([γ-33P]ATP, CDC25C-derived peptide substrate); format: biochemical; settings: 50 μM ATP, 50 μM substrate peptide, 25° C., 20 minutes
T1 construct: a baculovirus expressing full-length human PLK1 of which N terminus is fused with GST; GST (glutathione S-transferase) (N, cleaved yes); made in house; host or cells: Spodoptera frugiperda Sf9 insect cells (baculovirus)
T1 sequence (P53350 whole entry, the tested form may be a part): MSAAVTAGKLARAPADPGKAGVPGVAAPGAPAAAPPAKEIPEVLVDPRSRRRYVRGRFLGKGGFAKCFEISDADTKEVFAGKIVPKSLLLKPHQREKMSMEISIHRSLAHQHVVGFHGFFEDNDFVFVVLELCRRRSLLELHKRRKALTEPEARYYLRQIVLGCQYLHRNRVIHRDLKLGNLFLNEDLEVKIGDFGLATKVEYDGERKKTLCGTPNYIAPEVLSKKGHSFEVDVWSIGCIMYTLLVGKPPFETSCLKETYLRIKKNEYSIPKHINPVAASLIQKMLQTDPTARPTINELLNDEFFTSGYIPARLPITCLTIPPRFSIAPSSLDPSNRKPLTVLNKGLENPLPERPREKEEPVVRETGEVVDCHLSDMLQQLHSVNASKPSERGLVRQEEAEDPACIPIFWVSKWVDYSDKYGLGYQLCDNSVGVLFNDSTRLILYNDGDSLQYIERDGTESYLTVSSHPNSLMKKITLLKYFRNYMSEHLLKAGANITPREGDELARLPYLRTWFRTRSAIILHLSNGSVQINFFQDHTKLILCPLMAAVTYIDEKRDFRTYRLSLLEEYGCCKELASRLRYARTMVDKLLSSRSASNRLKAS
Description: First, a baculovirus expressing full-length human PLK1 of which N terminus is fused with GST (glutathione S-transferase) was prepared, and then the PLK1 infected into a Spodoptera frugiperda (Sf)9 insect cell was highly expressed as a GST-fused protein. The cells were recovered and suspended in a lysis buffer (50 mM tris-hydrochloric acid buffer (pH 7.4)/150 mM sodium chloride/1 mM EDTA (ethylenediamine tetraacetic acid)/1 mM dithiothreitol/0.1% polyoxyethylene sorbitan monolaurate) to break cells with sonicator, and supernatant was recovered after a centrifugation. The supernatant was reacted on glutathione sepharose beads, and then the beads were washed with a lysis buffer. Thereafter, the beads were reacted in a lysis buffer containing Precision Protease to recover supernatant. […]
The reaction was carried out in accordance with the method of Toyoshima-Morimoto et al. [Nature, Vol. 410, 215-220, (2001)]. […] After the phosphocellulose filter is washed with 75 mM phosphate buffer and then dried, the radioactivity of the substrate was measured with a liquid scintillation counter. […]

[1] = molecular target: T2, PLK1-T210D (human active type PLK1) (Homo sapiens, UniProt P53350, T210D); experiment: Measurement of the inhibitory effect against PLK1-T210D activity ([γ-33P]ATP, CDC25C-derived peptide substrate); format: biochemical; settings: 50 μM ATP, 50 μM substrate peptide, 25° C., 20 minutes
T2 construct: a baculovirus expressing full-length human PLK1 of which N terminus is fused with GST; GST (glutathione S-transferase) (N); made in house; host or cells: insect cells (baculovirus)
T2 sequence (P53350 whole entry T210D, the tested form may be a part): as the sequence (P53350 whole entry, the tested form may be a part) above, with T210D counted along it
Description: It has been known that 210th codon of human PLK1 which originally codes for threonine can be changed to an active type by altering the site so as to code aspartic acid [Molecular and Cellular Biology (Mol. Cell. Biol.), 17th edition, 3408 (1997)]. In order to obtain a human active type PLK1 protein, cDNA of mutated PLK1 (PLK1-T210D) of which 210th codon codes aspartic acid was prepared, by substituting a base in the 210th codon of human PLK1 cDNA. This PLK1-T210D cDNA was integrated into a baculovirus expression vector in the same manner as in the above, expressed in insect cells, and then was purified.
For the measurement of the PLK1 and PLK1-T210D activity, used as a substrate was a synthetic peptide (aspartic acid-glutamic acid-leucine-methionine-glutamic acid-alanine-serine-phenylalanine-alanine-aspartic acid-glutamine-aspartic acid-alanine-lysine), where the serine surrounding sequence of the amino acid sequence No. 198 of CDC25C, which have been reported as the site for PLK1 substrate [EMBO Report, 3rd edition, 341 (2002)], is altered.
The reaction was carried out in accordance with the method of Toyoshima-Morimoto et al. [Nature, Vol. 410, 215-220, (2001)]. The volume of the reaction solution was 21.1 μL and the composition of the reaction buffer was 20 mM of tris-hydrochloric acid buffer (pH 7.4)/10 mM magnesium chloride/0.5 mM dithiothreitol/1 mM EGTA (ethylene glycol-bis(beta-aminoethylether)-N,N,N′,N′,-tetraacetic acid). Thereto, purified PLK 1, 50 μM of the substrate peptide, 50 μM of non-labeled adenosine triphosphate (ATP), and 1 μCi of [γ-33P]-labeled ATP (2000 to 4000 Ci/mmole) were added to react at 25° C. for 20 minutes. Then, 10 μL of 350 mM phosphate buffer was added to the reaction system to terminate the reaction. The resultant solution was spotted onto a multi-screen phosphocellulose filter on a 96-well plate. After the phosphocellulose filter is washed with 75 mM phosphate buffer and then dried, the radioactivity of the substrate was measured with a liquid scintillation counter. The non-labeled ATP and [γ-33P]-labeled ATP was purchased from Amersham Bioscience Corp. and the multi-screen phosphocellulose filter from Millipore Corp., respectively.
The addition of the compound of the present invention to the reaction system was carried out by adding 1.1 μL of the solution as prepared by preliminarily dissolving in dimethylsulfoxide at a 20-fold concentration of the final concentration. A control was provided by adding 1.1 μL of dimethylsulfoxide to the reaction system.

HeLaS3 cells = experiment: Inhibitory activity against PLK1 at cellular level: ratio of cells arrested at M phase (phospho-histone H3 Ser10, mitotic index); format: cell-based; settings: Homo sapiens, HeLa S3; HeLaS3 cells synchronized at G1/S, 12 hours with compound; concentration inducing 50% of maximal M phase arrest; read-out: Inhibitory effect against cell proliferation
Description: For the measurement of the PLK 1 inhibitory effect of the compound at the cellular level, human uterine cervix cell lines HeLaS3 cells were used. The HeLaS3 cell was obtained from American Type Culture Collection (ATTC), and cultured in a CO2-incubator of saturated steam by using Dulbecco's Modified Eagle's Medium containing 10% fetal calf serum at 37° C. in the presence of 5% CO2.
It has been reported that PLK 1 plays an important role in various stages of mitotic phase (M-phase) in mammalian cells (Nature Review Molecular Cell Biology, Vol. 5, 429, (2004)). In fact, when the mammalian cells are treated with PLK 1 siRNA to control the expression level, the cell cycle progression is inhibited and thus the cell is arrested at M phase. Also, when examining the phosphorylation level of serine, 10th residue of histone H3, which is thought to be required for a chromosome condensation in M phase, it is observed that the level is enhanced to a high level. Thus, after treating the cell with the compound according to the present invention; the phosphorylation level of histone H3 was examined by an indirect fluorescent antibody technique, the cells arrested at M phase were identified by using the level thereof as an indicator to analyze the ratio of cells arrested at M phase; and then EC50 value of each compound was calculated to evaluate the PLK 1 inhibitory effect at a cellular level.
First, HeLaS3 cells synchronized at the G1/S phase by a double-thymidine technique were seeded into lysine-treated 96-well plate (Falcon Corp.) at the ratio of 8,000 per one well, and allowed to stand still in the above-mentioned CO2 incubator. […] After terminating the reaction, the reaction solution in wells was removed and replaced with 100 μL of PBS, and then fluorescence images were captured by using InCell Analyzer 1000 (manufactured by GE Amersham) to analyze the ratio of the cells arrested at M phase (Mitotic index) at different view angles. […]

Compound	IC50 (full-length human PLK1)	IC50 [1]	EC50 (HeLaS3 cells)
Cc1cccn2c(-c3nc(N[C@@H](C)c4ccccc4)ncc3C#N)cnc12 [Example 8, 4-(8-methylimidazo[1,2-a]pyridin-3-yl)-2-{[(1S)-1-phenylethyl]amino}-5-pyrimidinecarbonitrile]	43 nM	26 nM	–
C[C@H](Nc1ncc(Br)c(-c2cnc3c(Cl)cccn23)n1)c1ccccc1 [Example 28, 5-bromo-4-(8-chloroimidazo[1,2-a]pyridin-3-yl)-N-[(1S)-1-phenylethyl]-2-pyrimidinamine]	–	42 nM	–
C[C@H](Nc1ncc(C#N)c(-c2cnc3c(C(F)(F)F)cccn23)n1)c1ccccc1 [Example 36, 2-{[(1S)-1-phenylethyl]amino}-4-[8-(trifluoromethyl)imidazo[1,2-a]pyridin-3-yl]-5-pyrimidinecarbonitrile]	–	16 nM	310 nM
Cc1cccn2c(-c3nc(N[C@@H](C)c4ccc(N)cc4)ncc3C#N)cnc12 [Example 112, 2-{[(1S)-1-(4-aminophenyl)ethyl]amino}-4-(8-methylimidazo[1,2-a]pyridin-3-yl)pyrimidine-5-carbonitrile]	–	47 nM	340 nM
COc1cccn2c(-c3nc(N[C@@H](C)c4ccc(N5CCNCC5)cc4)ncc3C#N)cnc12 [Example 158, 4-(8-methoxyimidazo[1,2-a]pyridin-3-yl)-2-{[(1S)-1-(4-piperazin-1-ylphenyl)ethyl]amino}pyrimidine-5-carbonitrile]	–	41 nM	180 nM
